Activity calls are given as the source filed them.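 How the source made its calls: active means compounds giving half or more protection of infected cells from virus-caused growth loss, again on retest; inactive means the rest.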 Where a SMILES comes first, the peptide text is derived from it. [ ]: non-standard residue; d: D form. ξ: configuration not given here. Ac5c = NC1(C(=O)O)CCCC1; ξS = NC(CO)C(=O)O
System: CEM cells HIV-1 protection, formazan growth assay
Assay: NCI AIDS Antiviral Assay
Details: for IC50: measured here: growth of uninfected CEM cells
Procedure, shortened: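 Steps: treat uninfected and HIV-1-infected human CEM cells at five drug levels; quantify growth by soluble formazan; retest any compound reaching 50% protection; classify actives from the retest.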

| Structure (SMILES) | EC50 | IC50 | outcome |
| --- | --- | --- | --- |
| COC1C2CC3C4(CCC5C6(C)CCCC53C(C14)N(C)C6)CC21CCC23C4C=C5C6=C(CCC5(CC42)C3O1)C1(C)CC(C6)CN(C)C1 (stereo not given) | 0.38 µM | 18.6 µM |  |
| Cc1ccc(S(=O)(=O)C2CC2(Cl)Cl)cc1 (stereo not given) |  |  | inactive |
| CN(C)C(=S)SSC(=S)N(C)C.[Zn+2] | > 200 µM | 0.117 µM |  |
| CCc1cccc(C)c1NC(=O)CC1Sc2ccccc2NC1=O (stereo not given) | > 28.8 µM | 17.8 µM |  |
| FC(F)(F)c1ccc2nc(NCc3ccccc3)c(-c3ccccc3)nc2c1 | > 19.1 µM | > 19.1 µM |  |
| CN(CCO)c1nc2c(c(=O)[nH]1)CCC2 | > 240 µM | > 240 µM |  |
| OC(=Nc1cc(C(O)=Nc2cc(C(O)=Nc3cc(C(O)=Nc4ccc(C5=NCCN5)cc4)cc(C4=NCCN4)c3)cc(C3=NCCN3)c2)cc(C2=NCCN2)c1)c1ccc(C(O)=Nc2cc(C(O)=Nc3cc(C(O)=Nc4cc(C(O)=Nc5ccc(C6=NCCN6)cc5)cc(C5=NCCN5)c4)cc(C4=NCCN4)c3)cc(C3=NCCN3)c2)cc1 | 14.5 µM | > 100 µM |  |
| CCCCCC/C=[N+](/[O-])CC1OC(n2ccc(=O)[nH]c2=O)C(O[Si](C)(C)C(C)(C)C)C1O[Si](C)(C)C(C)(C)C (stereo not given) | > 200 µM | 6.76 µM |  |
| c1nc2nc3c(cn2n1)CCCCC3 | > 200 µM | > 200 µM |  |
| Cc1cc2c(c(C(=O)NCC(=O)N[C@@H](C)C(=O)OCc3ccccc3)c1)Oc1c(cc(C)cc1C(=O)NCC(=O)N[C@@H](C)C(=O)OCc1ccccc1)S2 | > 200 µM | 7.76 µM |  |
| Cc1ccc(N(C)S(=O)(=O)c2ccc([N+](=O)[O-])cc2)cc1 | > 200 µM | 178 µM |  |
| Cc1cc(/C=C2/OC(=O)c3ccccc32)cc(C)c1O | > 100 µM | > 100 µM |  |
| COc1ccc(N2C(=O)C3c4[nH]c5ccc(OC)cc5c4C4CCC(c5ccccc5)CC4C3C2=O)cc1 (stereo not given) | > 100 µM | 67.6 µM |  |
| CC(=Nc1ccncc1)C(C)=Nc1ccncc1 | 20.9 µM | 36.3 µM |  |
| O=C(/C=C/c1ccccc1Cl)NC1C=Nc2ccc([N+](=O)[O-])cc2NC1 (stereo not given) | > 26.9 µM | > 26.9 µM |  |
| COc1cc(C2C3=C(COC3=O)OC(C)(C)Oc3cc4c(cc32)OCO4)cc(OC)c1O (stereo not given) | > 2 µM | 0.575 µM |  |

| Structure (SMILES) | EC50 | IC50 | outcome |
| --- | --- | --- | --- |
| CC(=O)n1nc(-c2[nH]c(C)c(-c3nn(C(C)=O)c(=S)o3)c2C)oc1=S | > 50.1 µM | > 50.1 µM |  |
| O=c1c2ccccc2c2cc3ccc4c(=O)c5ccccc5c5cc6ccc1c2c6c3c45 | > 200 µM | > 200 µM |  |
| COc1cc(C2c3cc4c(c(O)c3C(=O)C3CCC(=O)N32)OCO4)cc(OC)c1OC (stereo not given) | > 200 µM | 20.9 µM |  |
| CCOC(=O)C(=O)NNc1cc(=O)n(C)c(=O)n1C | > 200 µM | > 200 µM |  |
| CN1CCC/C1=C1/C(=O)N(c2ccccc2)N=C1c1ccc[nH]1 | 191 µM | > 200 µM |  |
| CN1N(c2ccccc2)C(=O)C2=NC=C(C(=O)c3ccccc3)C(=N)C21C (stereo not given) | > 200 µM | > 200 µM |  |
| COc1ccc(/C=C(/NC(=O)c2ccccc2)C(=O)Nc2ccccc2)cc1OC | > 200 µM | > 200 µM |  |
| C=C(C)[C@@H]1CC[C@@H](C)C[C@H]1OC(C)=O | > 200 µM | > 200 µM |  |
| O=C(O)CCC(NC(=O)c1ccc(CNc2nc3ccccc3nc2C(=O)O)cc1)C(=O)O (stereo not given) | > 200 µM | > 200 µM |  |
| CC1(C)C(=O)N2C(=O)CC(=O)N2C1=O | > 457 µM | > 457 µM |  |
| O=C(O)c1cc(=O)c2cc(C(=O)c3cccs3)c(Cl)c(Cl)c2o1 | > 9.55 µM | > 9.55 µM |  |
| CN(C)CCCCN1c2ccccc2Sc2cc(N=[N+]=[N-])ccc21 | > 200 µM | 2.45 µM |  |
| Cc1cc(NC(=O)c2ccc(N=Nc3c(S(=O)(=O)O)cc4cc(NC(=O)c5ccc(N)cc5)ccc4c3O)cc2)ccc1N=Nc1ccc2cc(S(=O)(=O)O)cc(S(=O)(=O)O)c2c1 |  |  | active |
| CC=C(c1cc(Cl)c(OC)c(C(=O)OC)c1)c1cc(Cl)c(OC)c(C(=O)OC)c1 | > 2 µM | 0.0631 µM |  |
| CCOC(=O)C(CO)NC(=O)C1(NC(C)=O)CCCC1 (stereo not given) (Ac-[Ac5c]-[ξS]-OEt) | > 200 µM | > 200 µM |  |

Source: PubChem BioAssay AID179 (DTP/NCI, 2004)
